In patent US20250266123A1, “IN SILICO METHOD OF IDENTIFYING ALLOSTERIC HECT E3-LIGASE INHIBITORS” (Ramot at Tel-Aviv University Ltd., priority 2024, published 2025):

Columns and labels:
human SMURF1 promoter = assay: Human SMURF1 promoter-GFP reporter in HEK293 cells; format: cell-based; details: HEK293 stably transfected
Description: (§1) FIG. 13. (A) Screen for modulators of SMURF1 mRNA abundance in PASMCs. Human PASMCs from PAH patients were treated with agents that are associated with PAH, including cytokines, chemokines, growth factors, and small molecule pathway probes, and were cultured under hypoxic conditions to identify modulators of SMURF1 mRNA (n=2 donors). […] The human SMURF1 promoter was stably transfected into HEK293 cells upstream of a GFP sequence.

SMURF1 mRNA = assay: Screen for modulators of SMURF1 mRNA abundance in PASMCs; format: cell-based, human; details: PASMCs from PAH patients; normalized Ct values
Description: as §1

E6AP = biological target: T1, E6AP (Homo sapiens, UniProt Q05086, K489R); assay: E. coli split-CAT E6AP reporter system; format: cell-based
T1 construct: Similarly, E6AP453-852: wild-type HECTd, K466R or catalytic dead HECTd-C820A; expressed in transfected cells; host or cells: Mach1-T1R E. coli
T1 sequence (Q05086 453-852 isoform Q05086-2 K466R): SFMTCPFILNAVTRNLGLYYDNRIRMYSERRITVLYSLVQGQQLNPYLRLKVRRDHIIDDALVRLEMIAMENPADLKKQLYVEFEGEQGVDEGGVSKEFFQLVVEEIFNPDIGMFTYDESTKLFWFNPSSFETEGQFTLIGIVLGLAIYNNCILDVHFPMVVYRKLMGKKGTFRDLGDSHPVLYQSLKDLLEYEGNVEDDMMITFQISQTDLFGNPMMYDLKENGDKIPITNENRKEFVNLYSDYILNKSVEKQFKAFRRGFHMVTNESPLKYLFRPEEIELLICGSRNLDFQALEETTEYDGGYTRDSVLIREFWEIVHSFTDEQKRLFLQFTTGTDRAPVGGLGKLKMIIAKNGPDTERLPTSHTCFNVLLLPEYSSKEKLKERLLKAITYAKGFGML
Description: (§2) Assays were performed as previously described.84,85 The selection plasmids were co-transformed into Mach1™-T1R E. coli cells. All growth assays were performed in LB agar or liquid at 37° C. Optimization of chloramphenicol (CAM) concentrations were performed according to the largest growth shift between the hyperactive mutant to the catalytic dead mutant in SMURF1 (ΔC2-K381R; ΔC2-C725A) or in E6AP (HECTd-K466R; HECTd-C820A) at each assay as previously described. The disclosers constructed a split-CAT based E3-dependent Rpn10 full length ubiquitylation cascade to monitor the effect of inhibitor and point mutations in ubiquitin E3 ligases. Specifically, yeast Rpn10 was tethered to N-CAT as a general ubiquitylation target and co-expressed with C-CAT-Ub, E1, E2 and human SMURF1235-757: wild-type DC2, K381R or catalytic dead C725A. Similarly, E6AP453-852: wild-type HECTd, K466R or catalytic dead HECTd-C820A.
To inspect ubiquitylation of BMPR2, the disclosures substituted Rpn10 with BMPR2174-558 cytosolic portion fused to the N-CAT. […] Inhibition assays were performed in liquid LB using 96 well-plate with Tecan Sunrise reader high intensity shaking for 9.5 mins rest for 10, 5 mins shake and read at 595 nm. Growth was monitored between 12-36 Hrs as indicated. […]

E1, E2, CAT = assay: Split-CAT system counter-checks (E1, E2, CAT activity, E. coli toxicity); format: cell-based
Description: as §2
To inspect ubiquitylation of BMPR2, the disclosures substituted Rpn10 with BMPR2174-558 cytosolic portion fused to the N-CAT. […] Inhibition assays were performed in liquid LB using 96 well-plate with Tecan Sunrise reader high intensity shaking for 9.5 mins rest for 10, 5 mins shake and read at 595 nm. Growth was monitored between 12-36 Hrs as indicated.

Row | Compound | GFP signal (SMURF1 promoter) (human SMURF1 promoter) | SMURF1 expression (mRNA) (SMURF1 mRNA) | Inhibition of E6AP S739L, R740G double mutant (E6AP; escape mutant, FIG. 6K) | E6AP activity (E6AP; hyperactive HECTd-K466R E6AP, FIG. 6I) | Effect on E1, E2, or CAT activities (E1, E2, CAT)
1 | TGFβ1: transforming growth factor beta 1, agent in SMURF1 modulator screen | increased GFP signal | increase SMURF1 expression | – | – | –
2 | CO/C1=C\C(C)=C\[C@@H](C)[C@@H](O)[C@@H](C)C/C(C)=C/C=C/[C@H](OC)[C@@H]([C@@H](C)[C@@H](O)[C@H](C)[C@@]2(O)C[C@@H](O)[C@H](C)[C@@H](C(C)C)O2)OC1=O [bafilomycin A1, reference compound] | increased GFP signal | – | – | – | –
3 | Cc1ccc(-n2ccnc2N2CCN(C(=O)C34CC5CC(CC(C5)C3)C4)CC2)cc1 [i-27, 1-[1-(4-methylphenyl)-imidazol-2-yl]-4-[adamantane-1-carbonyl]piperazine] | – | – | inhibition was reduced twofold | reduced E6AP activity in a dose-dependent manner | without affecting E1, E2, or CAT activities
